In PubChem BioAssay (NCI):
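Growth conditions: 96-well plates. Treatment: test compound, 48 hours, 5 concentrations. Analysis: linear interpolation between bracketing concentrations; unreached endpoints set to highest concentration. Definition used: TGI = concentration required for complete inhibition of growth.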

Tests used:
Assay in all cases: DTP human tumour cell line panel, 48 h
HT29 colon = system: HT29 colon
NCI/ADR-RES ovarian = system: NCI/ADR-RES ovarian
MDA-N = system: MDA-N
LOX IMVI melanoma = system: LOX IMVI melanoma
OVCAR-5 ovarian = system: OVCAR-5 ovarian
SF-295 CNS = system: SF-295 CNS
HL-60(TB) leukemia = system: HL-60(TB) leukemia
A498 renal = system: A498 renal
MDA-MB-231 breast = system: MDA-MB-231 breast
CCRF-CEM leukemia = system: CCRF-CEM leukemia

Work on `O=C(NC1CCCCC1)N1CCNC1=S` yielded a TGI (HT29 colon) of over 100 µM, a TGI (NCI/ADR-RES ovarian) of over 100 µM and a TGI (MDA-N) of over 100 µM. It also gave a TGI (LOX IMVI melanoma) of over 100 µM, a TGI (OVCAR-5 ovarian) of over 100 µM and a TGI (SF-295 CNS) of over 100 µM. It also gave a TGI (HL-60(TB) leukemia) of over 100 µM, a TGI (A498 renal) of over 100 µM and a TGI (MDA-MB-231 breast) of 8.05 µM. For the same molecule, the TGI (CCRF-CEM leukemia) was over 100 µM.
Work on `COc1c(C(=O)CC2c3c(cc4oc(C)cc(=O)c4c3OC)OC(=N)C2c2nc3ccccc3[nH]2)c(O)c(OC)c2occc12` (centres undefined) yielded a TGI (HT29 colon) of over 100 µM, a TGI (NCI/ADR-RES ovarian) of over 100 µM and a TGI (MDA-N) of over 100 µM. The TGI (LOX IMVI melanoma) was over 100 µM, the TGI (OVCAR-5 ovarian) was over 100 µM and the TGI (SF-295 CNS) was over 100 µM. It also gave a TGI (HL-60(TB) leukemia) of over 100 µM, a TGI (A498 renal) of over 100 µM and a TGI (MDA-MB-231 breast) of over 100 µM. For the same molecule, the TGI (CCRF-CEM leukemia) was over 100 µM.
`OC[C@H](O)[C@@H](OCc1ccccc1)[C@H](NCc1ccccc1)c1cccs1` gave a TGI (HT29 colon) of over 100 µM, a TGI (NCI/ADR-RES ovarian) of over 100 µM and a TGI (MDA-N) of over 100 µM. For the same molecule, the TGI (LOX IMVI melanoma) was over 100 µM, the TGI (OVCAR-5 ovarian) was over 100 µM and the TGI (SF-295 CNS) was over 100 µM. It also gave a TGI (HL-60(TB) leukemia) of over 100 µM, a TGI (A498 renal) of over 100 µM and a TGI (MDA-MB-231 breast) of over 100 µM. It also gave a TGI (CCRF-CEM leukemia) of over 100 µM.
`CC(=O)[C@H]1CC[C@@H]2[C@]1(C)CC=C1[C@]23C=C[C@]2(C[C@@H](O)CC[C@]12C)C(C(=O)O)C3C(=O)O` (some centres undefined) showed a TGI (HT29 colon) of over 100 µM, a TGI (NCI/ADR-RES ovarian) of over 100 µM and a TGI (MDA-N) of over 100 µM. For the same molecule, the TGI (LOX IMVI melanoma) was over 100 µM, the TGI (OVCAR-5 ovarian) was over 100 µM and the TGI (SF-295 CNS) was over 100 µM. For the same molecule, the TGI (HL-60(TB) leukemia) was over 100 µM, the TGI (A498 renal) was over 100 µM and the TGI (MDA-MB-231 breast) was over 100 µM. For the same molecule, the TGI (CCRF-CEM leukemia) was over 100 µM.
In the case of `Cn1c(SCc2ccc([N+](=O)[O-])cc2)nnc1C12CC3CC(CC(C3)C1)C2`, the TGI (HT29 colon) is reported as over 10 µM, the TGI (NCI/ADR-RES ovarian) is reported as over 10 µM and the TGI (MDA-N) is reported as over 10 µM. For the same molecule, the TGI (LOX IMVI melanoma) was over 10 µM, the TGI (OVCAR-5 ovarian) was over 10 µM and the TGI (SF-295 CNS) was over 10 µM. For the same molecule, the TGI (HL-60(TB) leukemia) was over 10 µM, the TGI (A498 renal) was over 10 µM and the TGI (MDA-MB-231 breast) was over 10 µM. The TGI (CCRF-CEM leukemia) was over 10 µM.
Work on `O=[N+]([O-])c1cc(-c2ccc([As](=O)(O)O)cc2)ccc1[As](=O)(O)O` yielded a TGI (HT29 colon) of over 100 µM, a TGI (NCI/ADR-RES ovarian) of over 100 µM and a TGI (MDA-N) of over 100 µM. The TGI (LOX IMVI melanoma) was over 100 µM, the TGI (OVCAR-5 ovarian) was over 100 µM and the TGI (SF-295 CNS) was over 100 µM. The TGI (HL-60(TB) leukemia) was over 100 µM, the TGI (A498 renal) was over 100 µM and the TGI (MDA-MB-231 breast) was over 100 µM. For the same molecule, the TGI (CCRF-CEM leukemia) was over 100 µM.
Work on `C=C1C(O)C2OC(=O)C(=C)C2C(OC(=O)/C(C)=C/C)CC2(C)OC2C2OC12` (centres undefined) yielded a TGI (HT29 colon) of 33.7 µM, a TGI (NCI/ADR-RES ovarian) of over 100 µM and a TGI (MDA-N) of 6.02 µM. For the same molecule, the TGI (LOX IMVI melanoma) was 29.7 µM, the TGI (OVCAR-5 ovarian) was 83.7 µM and the TGI (SF-295 CNS) was 50.9 µM. For the same molecule, the TGI (HL-60(TB) leukemia) was 7.44 µM, the TGI (A498 renal) was 46.4 µM and the TGI (MDA-MB-231 breast) was 37.9 µM. The TGI (CCRF-CEM leukemia) was over 100 µM.
`CCc1cc2c(cc1O)CC[C@@H]1[C@@H]2CC[C@]2(C)[C@@H](O)CC[C@@H]12` was tested, and the TGI (HT29 colon) was 29.3 µM, the TGI (NCI/ADR-RES ovarian) was 9.92 µM and the TGI (MDA-N) was 8.62 µM. For the same molecule, the TGI (LOX IMVI melanoma) was 26.6 µM, the TGI (OVCAR-5 ovarian) was 39.4 µM and the TGI (SF-295 CNS) was 12.1 µM. The TGI (HL-60(TB) leukemia) was 7.66 µM, the TGI (A498 renal) was 34.6 µM and the TGI (MDA-MB-231 breast) was 21.4 µM. For the same molecule, the TGI (CCRF-CEM leukemia) was 15 µM.
With `COc1ccc2nc3c(nc2c1)C(C)(C)C=C3c1ccc(Br)cc1` the TGI (HT29 colon) was over 100 µM, the TGI (NCI/ADR-RES ovarian) was over 100 µM and the TGI (MDA-N) was over 100 µM. For the same molecule, the TGI (LOX IMVI melanoma) was over 100 µM, the TGI (OVCAR-5 ovarian) was over 100 µM and the TGI (HL-60(TB) leukemia) was over 100 µM. It also gave a TGI (A498 renal) of over 100 µM, a TGI (MDA-MB-231 breast) of over 100 µM and a TGI (CCRF-CEM leukemia) of over 100 µM.
`CN(C)CCNC(=O)c1cccc2c(NC(CCCN=C(N)N)C(=O)O)c3ccccc3nc12` (centres undefined) was tested, and the TGI (HT29 colon) was 14.1 µM, the TGI (NCI/ADR-RES ovarian) was 25.1 µM and the TGI (MDA-N) was over 100 µM. It also gave a TGI (LOX IMVI melanoma) of over 100 µM, a TGI (OVCAR-5 ovarian) of over 100 µM and a TGI (SF-295 CNS) of 41.9 µM. The TGI (HL-60(TB) leukemia) was over 100 µM, the TGI (A498 renal) was 61.3 µM and the TGI (MDA-MB-231 breast) was over 100 µM. It also gave a TGI (CCRF-CEM leukemia) of over 100 µM.
`COC(=O)c1cc(NC(=O)Cn2c3ccccc3c3ccccc32)cn1C` showed a TGI (HT29 colon) of over 100 µM, a TGI (NCI/ADR-RES ovarian) of over 100 µM and a TGI (MDA-N) of over 100 µM. The TGI (LOX IMVI melanoma) was over 100 µM, the TGI (OVCAR-5 ovarian) was over 100 µM and the TGI (SF-295 CNS) was 86.3 µM. The TGI (HL-60(TB) leukemia) was over 100 µM, the TGI (A498 renal) was over 100 µM and the TGI (MDA-MB-231 breast) was 48.8 µM. The TGI (CCRF-CEM leukemia) was over 100 µM.
For `C=c1c2ccccc2oc2nc3[nH]c(N)c(C#N)c(N)c3c(=N)c12`, the TGI (HT29 colon) was 80.8 µM, the TGI (NCI/ADR-RES ovarian) was over 100 µM and the TGI (MDA-N) was over 100 µM. It also gave a TGI (LOX IMVI melanoma) of 68.4 µM, a TGI (OVCAR-5 ovarian) of over 100 µM and a TGI (SF-295 CNS) of over 100 µM. It also gave a TGI (HL-60(TB) leukemia) of 90.3 µM, a TGI (A498 renal) of over 100 µM and a TGI (MDA-MB-231 breast) of over 100 µM. For the same molecule, the TGI (CCRF-CEM leukemia) was over 100 µM.
`CCOC(=O)C(NS(=O)(=O)c1ccccc1)(C(F)(F)F)P(=O)(OCC(C)C)OCC(C)C` (centres undefined) was tested, and the TGI (HT29 colon) was over 100 µM, the TGI (NCI/ADR-RES ovarian) was over 100 µM and the TGI (MDA-N) was over 100 µM. It also gave a TGI (LOX IMVI melanoma) of over 100 µM, a TGI (OVCAR-5 ovarian) of over 100 µM and a TGI (SF-295 CNS) of over 100 µM. For the same molecule, the TGI (HL-60(TB) leukemia) was over 100 µM, the TGI (A498 renal) was over 100 µM and the TGI (MDA-MB-231 breast) was over 100 µM. For the same molecule, the TGI (CCRF-CEM leukemia) was over 100 µM.
Molecule `CC(=O)OC1CC[C@@]2(C)C(=CC[C@@H]3[C@@H]2CC[C@]2(C)Nc4c(cnn4-c4ccc(F)cc4)C[C@@H]32)C1` (some centres undefined) has a TGI (HT29 colon) of over 100 µM, a TGI (NCI/ADR-RES ovarian) of over 100 µM and a TGI (MDA-N) of over 100 µM. The TGI (LOX IMVI melanoma) was over 58.6 µM, the TGI (OVCAR-5 ovarian) was over 100 µM and the TGI (SF-295 CNS) was 36.4 µM. For the same molecule, the TGI (HL-60(TB) leukemia) was over 26 µM, the TGI (A498 renal) was over 83.1 µM and the TGI (MDA-MB-231 breast) was over 100 µM. For the same molecule, the TGI (CCRF-CEM leukemia) was over 100 µM.
In the case of `Nc1nc(Cl)cc(Oc2ccc(Cl)cc2)n1`, the TGI (HT29 colon) is reported as over 100 µM, the TGI (NCI/ADR-RES ovarian) is reported as over 100 µM and the TGI (MDA-N) is reported as over 100 µM. For the same molecule, the TGI (LOX IMVI melanoma) was over 100 µM, the TGI (OVCAR-5 ovarian) was over 100 µM and the TGI (SF-295 CNS) was over 100 µM. It also gave a TGI (HL-60(TB) leukemia) of over 100 µM, a TGI (A498 renal) of over 100 µM and a TGI (MDA-MB-231 breast) of over 100 µM. It also gave a TGI (CCRF-CEM leukemia) of over 100 µM.
Work on `COc1cc([C@@H]2c3cc4c(cc3[C@H](OC3OC5COC(C(C)C)OC5C(O)C3O)C3COC(=O)[C@@H]32)OCO4)cc(OC)c1OC` (some centres undefined) yielded a TGI (HT29 colon) of 7.11 µM, a TGI (NCI/ADR-RES ovarian) of over 79.5 µM and a TGI (MDA-N) of 3.53 µM. It also gave a TGI (LOX IMVI melanoma) of 27 µM, a TGI (OVCAR-5 ovarian) of over 73.8 µM and a TGI (SF-295 CNS) of over 23.8 µM. For the same molecule, the TGI (HL-60(TB) leukemia) was over 25.8 µM, the TGI (A498 renal) was 9.96 µM and the TGI (MDA-MB-231 breast) was 19.2 µM. It also gave a TGI (CCRF-CEM leukemia) of over 29.6 µM.
`CCOC(=O)/C(C(N)=O)=C(/O)c1cnccn1` gave a TGI (HT29 colon) of over 100 µM, a TGI (NCI/ADR-RES ovarian) of over 100 µM and a TGI (MDA-N) of over 100 µM. For the same molecule, the TGI (LOX IMVI melanoma) was over 100 µM, the TGI (OVCAR-5 ovarian) was over 100 µM and the TGI (SF-295 CNS) was over 100 µM. The TGI (HL-60(TB) leukemia) was over 100 µM, the TGI (A498 renal) was over 100 µM and the TGI (MDA-MB-231 breast) was over 100 µM. It also gave a TGI (CCRF-CEM leukemia) of over 100 µM.
